# Test results taken from paper PMC7918798, “Coumarins from Seseli devenyense Simonk.: Isolation by Liquid–Liquid Chromatography and Potential Anxiolytic Activity Using an In Vivo Zebrafish Larvae Model” (International Journal of Molecular Sciences, 2021).
# Entries after “also recorded” stand apart in the source; their conditions may differ.
# Assays:
# [1] = Shake-flask partition coefficient in HEMWat biphasic solvent systems; type: physicochemical
# Procedure: The screening for suitable biphasic solvent systems to isolate the target coumarins from Seseli devenyense methanolic fruit extract (SDMFE) was performed by shake-flask experiments. The partition coefficient (Pi), defined as the ratio of the concentration of a solute in the stationary phase to its concentration in the mobile phase, was used as the screening parameter. The experimental protocol was previously descried by Widelski et al. (2018). Briefly, 1 mg of crude extract was dissolved in 4 mL of biphasic solvent systems obtained by mixing various volumes of hexane, ethyl acetate, methanol and water (HEMWat). After vigorous shaking, the flasks were left until the complete separation of the layers. Then, equal volumes of the upper and lower phase (0.5 mL) were taken, evaporated to dryness, dissolved again in methanol (1.0 mL) and analyzed by HPLC-DAD analysis, as descried below.
# The preliminary analysis of the SDMFE, determination of the partition coefficient values and purity of collected fractions were assessed by HPLC-DAD. The HPLC-DAD analyses were performed on a Shimadzu HPLC (Shimadzu, Tokyo, Japan) equipped with automatic degasser (DGU-20A3R), quaternary pump (LC-20AD), auto-sampler (SIL-20AHT) and diode array detector (SPD-M20A). The separations were carried out on an Agilent Zorbax Eclipse XDB-C18 (Agilent, Santa Clara, CA, USA) (250 mm × 4.6 mm, 5 μm) column with a mobile phase consisting of water (solvent A) and methanol (solvent B). The following gradient was applied: 0 min: 50% B; 5 min: 60% B; 25 min: 80% B; 30–35 min: 100% B. The flow-rate was 1 mL/min; the column temperature was set at 25 °C. The injection volume of sample was 10 μL and detection was carried out at 320 nm.
# 5-dpf zebrafish larvae [2] = experiment: Zebrafish larvae 40 min continuous illumination: spontaneous locomotor activity and thigmotaxis (Phase 1); type: in vivo, Danio rerio; settings: for spontaneous locomotor activity (average distance moved): 40 min continuous illumination
# Procedure: (§1) The research protocol was adopted after Schnorr et al. (2012). The anxiolytic activity was evaluated in 24-well plates. The inner and outer zones of the well were delineated according to Schnorr et al. (2012). […] It could be also described as decreasing thigmotaxis. 1% DMSO in E3 solution was used as the negative control, 10 μM diazepam was used as the positive control. 32 larvae were used for each concentration.
# (§2) The experimental procedure was divided into three stages: • (a) Preincubation: larvae were pre-incubated in a 1500 μL solution of tested compounds in individual wells of a 24-well plate at 28.5 °C, in dark, for 30 min. • (b) Acclimatization (min 0–10): plates were placed in an automated video recording bench station (ViewPoint, Lyon, France). Larvae were allowed to acclimatize to the test apparatus for 10 min. During this period, lights were kept on. • (c) Visual motor challenge (min 11–95): this stage experiment was divided into two phases: Phase 1—continuous illumination: larvae were subjected to continuous light for 40 min, with the purpose to determine the spontaneous locomotor activity and thigmotaxis behavior (before applying the factor causing the anxiety). Phase 2—light/dark transition: larvae were subjected to three cycles, each involving the 10-min lighting phase (continuous light) and the 5-min dark phase (anxiogenic factor).
# 5-dpf zebrafish larvae [3] = experiment: Zebrafish larvae light/dark transition challenge: locomotor activity and thigmotaxis (anxiolytic activity assay, Phase 2); type: in vivo, Danio rerio; settings: for distance moved by the larvae in the central arena / time spent in the central area: dark phase vs light phase, concentration not stated
# Procedure: as §1, §2
# [4] = solvent system I, hexane/ethyl acetate/methanol/water 2/5/2/5 (v/v/v/v)
# [5] = dark phase vs DMSO-treated group in dark phase, 1.5 μM
# [6] = dark phase vs DMSO-treated group in dark phase, 9 μM
# [7] = dark phase vs DMSO-treated group in dark phase, 12.5 μM
# [8] = dark phase vs DMSO-treated group in dark phase, 25 μM
# [9] = dark phase vs light phase within same group, 1.5 μM
# [10] = dark phase vs light phase within same group, 3 μM
# [11] = dark phase vs light phase within same group, 6 μM
# [12] = dark phase vs light phase within same group, 9 μM
# [13] = dark phase vs light phase within same group, 12.5 μM
# [14] = dark phase vs light phase within same group, 25 μM
# [15] = dark phase vs DMSO-treated group in dark phase, 50 μM
# [16] = dark phase vs light phase within same group, 50 μM
# [17] = light phase vs DMSO-treated group in light phase, 12.5 μM
# [18] = light phase vs DMSO-treated group in light phase, 25 μM
# [19] = light phase vs DMSO-treated group in light phase, 50 μM
# [20] = dark phase vs DMSO-treated group in dark phase, 6 μM
# [21] = dark phase vs DMSO-treated group in dark phase, 15 μM
# [22] = dark phase vs light phase within same group, 15 μM
# [23] = 40 min continuous illumination vs DMSO-treated control group, diazepam 10 µM
# [24] = dark phase vs DMSO-treated group in dark phase, diazepam 10 μM
# [25] = dark phase vs light phase within same group, diazepam 10 μM
# [26] = light phase vs DMSO-treated group in light phase, diazepam 10 μM
structure (smiles),measurement,setting,value
CC1(C)Oc2ccc3ccc(=O)oc3c2[C@H](O)[C@@H]1O [cis-khellactone],Partition Coefficients (Pi),[1]; [4],2.50
same,spontaneous locomotor activity (average distance moved),"5-dpf zebrafish larvae [2]; all tested concentrations (1.5, 3, 6, 9, 12.5, 25 µM)",has not influenced
same,time spent in the central arena,"5-dpf zebrafish larvae [2]; 40 min continuous light, one-way ANOVA between tested groups, 1.5, 3, 6, 9, 12.5, 25 µM",not showed
same,percentage of time spent in central area,5-dpf zebrafish larvae [3]; [5],significant increases
same,percentage of time spent in central area,"5-dpf zebrafish larvae [3]; dark phase vs DMSO-treated group in dark phase, 3 μM",significant increases
same,percentage of time spent in central area,5-dpf zebrafish larvae [3]; [6],significant increases
same,percentage of time spent in central area,5-dpf zebrafish larvae [3]; [7],significant increases
same,percentage of time spent in central area,5-dpf zebrafish larvae [3]; [8],significant increases
same,percentage of distance moved in central area,"5-dpf zebrafish larvae [3]; dark phase vs DMSO-treated group in dark phase, all tested concentrations (1.5, 3, 6, 9, 12.5, 25 μM)",not observed
same,locomotor activity (average distance moved per 1-min time bin),5-dpf zebrafish larvae [3]; [9],increase
same,percentage of distance moved in central area,5-dpf zebrafish larvae [3]; [9],increase
same,percentage of time spent in central area,5-dpf zebrafish larvae [3]; [9],increase
same,locomotor activity (average distance moved per 1-min time bin),5-dpf zebrafish larvae [3]; [10],increase
same,percentage of time spent in central area,5-dpf zebrafish larvae [3]; [10],increase
same,locomotor activity (average distance moved per 1-min time bin),5-dpf zebrafish larvae [3]; [11],increase
same,percentage of distance moved in central area,5-dpf zebrafish larvae [3]; [11],increase
same,locomotor activity (average distance moved per 1-min time bin),5-dpf zebrafish larvae [3]; [12],increase
same,percentage of distance moved in central area,5-dpf zebrafish larvae [3]; [12],increase
same,locomotor activity (average distance moved per 1-min time bin),5-dpf zebrafish larvae [3]; [13],increase
same,percentage of distance moved in central area,5-dpf zebrafish larvae [3]; [13],increase
same,percentage of time spent in central area,5-dpf zebrafish larvae [3]; [13],increase
same,locomotor activity (average distance moved per 1-min time bin),5-dpf zebrafish larvae [3]; [14],increase
same,percentage of distance moved in central area,5-dpf zebrafish larvae [3]; [14],increase
same,percentage of time spent in central area,5-dpf zebrafish larvae [3]; [14],increase
same,percentage of time spent in central area,"5-dpf zebrafish larvae [3]; light phase vs DMSO-treated group in light phase, 6 μM",significant increase
same,percentage of time spent in central area,"5-dpf zebrafish larvae [3]; light phase vs DMSO-treated group in light phase, 9 μM",significant increase
same,locomotor activity (average distance moved per 1-min time bin),"5-dpf zebrafish larvae [3]; light phase vs DMSO-treated group in light phase, all tested concentrations (1.5, 3, 6, 9, 12.5, 25 μM)",not noticed
same,anxiolytic activity (authors' overall statement),5-dpf zebrafish larvae [3]; zebrafish larvae model,weakest activity
C/C=C(/C)C(=O)O[C@H]1c2c(ccc3ccc(=O)oc23)OC(C)(C)[C@H]1O [d-laserpitin],Partition Coefficients (Pi),"[1]; solvent system II, hexane/ethyl acetate/methanol/water 6/5/6/5 (v/v/v/v)",0.84
same,spontaneous locomotor activity (average distance moved),"5-dpf zebrafish larvae [2]; all concentrations (12.5, 25, 50 µM)",has not influe nced
same,locomotor activity (average distance moved per 1-min time bin),5-dpf zebrafish larvae [3]; [7],significant decreases
same,percentage of distance moved in central area,5-dpf zebrafish larvae [3]; [7],significant increases
same,percentage of time spent in central area,5-dpf zebrafish larvae [3]; [7],significant increases
same,locomotor activity (average distance moved per 1-min time bin),5-dpf zebrafish larvae [3]; [8],significant decreases
same,percentage of distance moved in central area,5-dpf zebrafish larvae [3]; [8],significant increases
same,percentage of time spent in central area,5-dpf zebrafish larvae [3]; [8],significant increases
same,locomotor activity (average distance moved per 1-min time bin),5-dpf zebrafish larvae [3]; [15],significant decreases
same,percentage of distance moved in central area,5-dpf zebrafish larvae [3]; [15],significant increases
same,percentage of time spent in central area,5-dpf zebrafish larvae [3]; [15],significant increases
same,percentage of distance moved in central area,5-dpf zebrafish larvae [3]; [13],increase
same,locomotor activity (average distance moved per 1-min time bin),5-dpf zebrafish larvae [3]; [14],increase
same,percentage of distance moved in central area,5-dpf zebrafish larvae [3]; [14],increase
same,percentage of time spent in central area,5-dpf zebrafish larvae [3]; [14],increase
same,locomotor activity (average distance moved per 1-min time bin),5-dpf zebrafish larvae [3]; [16],increase
same,percentage of distance moved in central area,5-dpf zebrafish larvae [3]; [16],increase
same,percentage of time spent in central area,5-dpf zebrafish larvae [3]; [16],increase
same,distance moved by the larvae in the central arena,5-dpf zebrafish larvae [3],significantly increased
same,time spent in the central area,5-dpf zebrafish larvae [3],significantly increased
same,percentage of distance moved in central area,5-dpf zebrafish larvae [3]; [17],decreased
same,percentage of time spent in central area,5-dpf zebrafish larvae [3]; [17],significant increase
same,percentage of distance moved in central area,5-dpf zebrafish larvae [3]; [18],significant increase
same,percentage of time spent in central area,5-dpf zebrafish larvae [3]; [18],significant increase
same,percentage of distance moved in central area,5-dpf zebrafish larvae [3]; [19],significant increase
same,percentage of time spent in central area,5-dpf zebrafish larvae [3]; [19],significant increase
CC(C)(O)C(O)Cc1c(O)ccc2ccc(=O)oc12 (stereo not drawn) [devenyol],Partition Coefficients (Pi),[1]; [4],0.80
same,spontaneous locomotor activity (average distance moved),"5-dpf zebrafish larvae [2]; all concentrations (1.5, 3, 6, 9, 15 µM)",has not influenced
same,anxiolytic activity (authors' overall statement),"5-dpf zebrafish larvae [3]; concentrations of 1.5, 6, 9 and 15 μM",active
same,locomotor activity (average distance moved per 1-min time bin),5-dpf zebrafish larvae [3]; [5],decreases
same,percentage of distance moved in central area,5-dpf zebrafish larvae [3]; [5],significant increases
same,percentage of time spent in central area,5-dpf zebrafish larvae [3]; [5],significant increase
same,percentage of distance moved in central area,5-dpf zebrafish larvae [3]; [20],significant increases
same,percentage of time spent in central area,5-dpf zebrafish larvae [3]; [20],significant increase
same,percentage of distance moved in central area,5-dpf zebrafish larvae [3]; [6],significant increases
same,percentage of time spent in central area,5-dpf zebrafish larvae [3]; [6],significant increase
same,percentage of distance moved in central area,5-dpf zebrafish larvae [3]; [21],significant increases
same,percentage of time spent in central area,5-dpf zebrafish larvae [3]; [21],significant increase
same,locomotor activity (average distance moved per 1-min time bin),5-dpf zebrafish larvae [3]; [9],significant increases
same,percentage of distance moved in central area,5-dpf zebrafish larvae [3]; [9],increase
same,locomotor activity (average distance moved per 1-min time bin),5-dpf zebrafish larvae [3]; [10],significant increases
same,percentage of distance moved in central area,5-dpf zebrafish larvae [3]; [10],increase
same,locomotor activity (average distance moved per 1-min time bin),5-dpf zebrafish larvae [3]; [11],significant increases
same,percentage of distance moved in central area,5-dpf zebrafish larvae [3]; [11],increase
same,locomotor activity (average distance moved per 1-min time bin),5-dpf zebrafish larvae [3]; [12],significant increases
same,percentage of distance moved in central area,5-dpf zebrafish larvae [3]; [12],increase
same,locomotor activity (average distance moved per 1-min time bin),5-dpf zebrafish larvae [3]; [22],significant increases
same,percentage of distance moved in central area,5-dpf zebrafish larvae [3]; [22],increase
same,percentage of time spent in central area,"5-dpf zebrafish larvae [3]; dark phase vs light phase within same group, all concentrations (1.5, 3, 6, 9, 15 μM)",increase
same,distance moved by the larvae in the central arena,5-dpf zebrafish larvae [3],significantly increased
same,time spent in the central area,5-dpf zebrafish larvae [3],significantly increased
"CN1C(=O)CN=C(c2ccccc2)c2cc(Cl)ccc21 [diazepam, reference compound]",percentage of distance moved in the central arena,5-dpf zebrafish larvae [2]; [23],increased
same,percentage of time spent in the central arena,5-dpf zebrafish larvae [2]; [23],increase
same,locomotor activity (average distance moved per 1-min time bin),5-dpf zebrafish larvae [3]; [24],significant decreases; also recorded: decrease
same,percentage of distance moved in central area,5-dpf zebrafish larvae [3]; [24],significant increases
same,percentage of time spent in central area,5-dpf zebrafish larvae [3]; [24],significant increases
same,percentage of distance moved in central area,5-dpf zebrafish larvae [3]; [25],increase
same,percentage of time spent in central area,5-dpf zebrafish larvae [3]; [25],increase
same,distance moved by the larvae in the central arena,5-dpf zebrafish larvae [3],significantly increased
same,time spent in the central area,5-dpf zebrafish larvae [3],significantly increased
same,percentage of distance moved in central area,5-dpf zebrafish larvae [3]; [26],significant increase
same,percentage of time spent in central area,5-dpf zebrafish larvae [3]; [26],significant increase
